Results taken from patent US20070254938A1, “Preventive or Therapeutic Agent for Vascular Intimal Proliferative Disease” (priority 2004, published 2007).

Legend:
[1] = Fasting plasma glucose levels in alloxan-induced diabetic rabbits; type: in vivo, Japanese white rabbits; conditions: 3 mg/kg orally once a day
Procedure: (§1) Diabetic model animals made by administrating alloxan (50 mg/kg) into Japanese white rabbits (body weight: 2.0 to 3.3 kg) were divided into 2 groups; one was a mitiglinide-treated group (n=5) in which mitiglinide calcium hydrate (3 mg/kg) suspended in 0.5% carboxymethylcellulose was administered orally once a day before feeding for 6 weeks from the next day of alloxan-administration to the day before experimental termination, and the other was the control group (n=4) in which 0.5% carboxymethylcellulose was administered in the same way. Two weeks after the alloxan-administration, the endothelium of the right common carotid artery was scraped using a balloon catheter, and then, the incision on the vessel wall was sutured with care not to cause stenosis. The left common carotid artery was used as a side of Sham-operation (the normal group). Four (4) weeks after the operation of scraping endothelium of a blood vessel, the bilateral common carotid arteries were removed, and the intimal, medial and luminal areas of the sections of the arteries were measured using a morphometric analyzer. Fasting plasma glucose levels were measured 2 weeks after the alloxan-administration (on the day of scraping the endothelium) and 6 weeks after the alloxan-administration (on the day of removing the arteries.

[2] = test system: intimal hyperplasia of the common carotid artery; test: Intimal hyperplasia of a blood vessel caused by scraping endothelium of common carotid artery in alloxan-induced diabetic rabbits; type: in vivo, Japanese white rabbits; conditions: 3 mg/kg orally once a day for 6 weeks; arteries removed 4 weeks after scraping endothelium; compared to the control group; FIG. 1
Procedure: Effect on Intimal Hyperplasia of a Blood vessel Caused by Scraping Endothelium of Common Carotid Artery in Rabbits
as §1, with “The left common carotid artery was used as a side of Sham-operation (the normal group).” left out

O=C(O)[C@H](CC(=O)N1C[C@H]2CCCC[C@H]2C1)Cc1ccccc1 [mitiglinide calcium hydrate, bis{(2S)-2-benzyl-3-(cis-hexahydro-2-isoindolinylcarbonyl)-propionic acid}calcium dihydrate]
influence on fasting plasma glucose level ([1]; 2 weeks after alloxan-administration, FIG. 2): no influence | influence on fasting plasma glucose level ([1]; 6 weeks after alloxan-administration, FIG. 3): no influence | inhibitory effect on intimal hyperplasia (ratio of intimal area to medial area) [2]: significant inhibitory effect
